The values that follow come from patent US12433865B2, “Compositions comprising PGI2-receptor agonists and processes for the preparation thereof” (Arena Pharmaceuticals, Inc., priority 2018, dated 2025).

Data set [1] can be described thus: Open-label, fixed sequence single-dose pharmacokinetic study in healthy subjects (Example 7 A). The class given is in vivo, human. The procedure: A. An open-label, fixed sequence, non-randomized study in two cohorts of healthy male and non-pregnant, non-lactating female subjects was conducted. Two cohorts with twelve subjects in each were enrolled to ensure data in ten evaluable subjects per cohort.
Each subject in Cohort 1 received each of the following regimens, in the fasted state, in a sequential manner over four treatment periods: • Regimen A (0.03 mg immediate-release Compound 1): 1×0.03 mg Compound 1 immediate-release capsule. • Regimen B (0.06 mg modified-release Compound 1): 1×0.06 mg Compound 1 modified-release tablet as disclosed herein. • Regimen C (0.12 mg modified-release Compound 1): 2×0.06 mg Compound 1 modified-release tablets as disclosed herein. • Regimen D (0.18 mg modified-release Compound 1) 3×0.06 mg Compound 1 modified-release tablets as disclosed herein.
Subjects received each regimen in the morning of Day 1, following an overnight fast of a minimum of 8 hours. PK samples were taken from subjects at 72 hours post-dose. There was a minimum washout period of 7 days between each administration of investigational medicinal product (IMP) (i.e., selexipag film-coated tablet(s), Compound 1 immediate-release capsule(s), and/or Compound 1 modified-release tablet(s)).
For Cohort 1, subjects received Regimens […] in a sequential manner at consecutive treatment periods.
Venous blood samples were withdrawn at regular time intervals. Plasma concentration data for Compound 1 and the selexipag parent and active metabolite were analyzed using appropriate non-compartmental techniques to obtain estimates of one or more of the following parameters: • Tlag • Tmax • Cmax • C12 • C24 • AUC(0-last) • AUC(0-inf) • AUC % extrap • lambda-z • T1/2e1 • CL/F • Frel: relative bioavailability of 0.06 mg Compound 1 tablets compared to the reference 0.03 mg Compound 1 capsule Pharmacodynamic Assessments:
One or more of the above pharmacokinetic parameters were determined at one or more of the following time points: pre-dose and (referring to hours after administration): 0.5, 1, 1.5, 2, 3, 4, 5, 6, 8, 10, 12, 16, 20, 24, 36, 48, and 72 hours.

Another data set is described as follows: Plasma half-life. Type of data set: in vivo.
[2] abbreviates: 0.06-0.18 mg modified-release tablets vs 0.03 mg immediate-release capsule.
[3] abbreviates: single oral dose, fasted healthy subjects.

Usually half-life stands for the time needed for the level to fall by half in the phase considered. In general, Tmax refers to the time from dosing to the highest level. As to `O=C(O)COC[C@H]1CC[C@H](COC(=O)N(c2ccccc2)c2ccc(Cl)cc2)CC1` [Compound 1, 2-(((1r,4r)-4-(((4-chlorophenyl)(phenyl)carbamoyloxy)methyl)cyclohexyl)methoxy)acetic acid], in data set [1] (0.18 mg modified-release tablet), the “dose-adjusted total exposure (AUC(0-last)) compared to 0.03 mg immediate release capsule” value is listed as “similar”. Further, in data set [1] (0.06, 0.12 and 0.18 mg modified-release tablet), the “relative bioavailability based on individual dose-adjusted Cmax vs immediate-release capsule” value was “statistically significantly lower”. In data set [1] (setting [2]), the “dose-adjusted peak plasma exposure (Cmax/D), geometric mean ratios modified-release vs immediate-release” value was 28.7-41.2% and the “dose-adjusted total plasma exposure (AUC/D), geometric mean ratios modified-release vs immediate-release” value is listed as 63.3-97.9%. Moreover, the “relative bioavailability based on individual dose-adjusted AUC(0-last) vs immediate-release capsule” value in data set [1] (0.06 and 0.12 mg modified-release tablet) is given as “statistically significantly lower”. For the same compound, the half-life in data set [1] (both sexes, human, plasma, oral, modified-release tablets, across all dose levels (0.06, 0.12, 0.18 mg), read-out: geometric mean half-life) fell in the range of 19 to 23 h. Moreover, the time to peak (Tmax) in data set [1] (both sexes, human, plasma, single oral administration of 0.06, 0.12 and 0.18 mg modified-release tablets, read-out: median Tmax) was in the range of 4 to 10 h. Moreover, the “plasma concentrations at 24 hours post-dose compared to immediate-release formulation” value in data set [1] (modified-release tablet formulation) was “higher”. Further, in data set [1] (oral modified-release tablet formulation), the “increase of systemic exposure (Cmax and AUC) with dose” value was “slightly higher than dose-proportional”. Moreover, in data set [1] (setting [3]), the “Cmax, modified-release tablet vs immediate-release capsule” value is “reduced”; the “Tmax, modified-release tablet vs immediate-release capsule” value is on record as “increased”; the “total plasma concentrations, modified-release tablet vs immediate-release capsule” value is given as “similar”. The same compound showed a half-life in the data set “Plasma half-life” of roughly 24 h.
